Tests used:
TAC mice [1] = experiment: TAC mice, 6-week minipump treatment: echocardiography; type: in vivo; conditions: in words
TAC mice [2] = experiment: TAC mice, 6-week minipump treatment: cardiac fibrosis, Masson's trichrome; type: in vivo; conditions: 6 weeks, TMZ 6, NA 2.4, CV-8814 7.5, CV-8972 10 mg/kg/day, TAC control 10.7±1
TAC mice [3] = experiment: TAC mice, 6-week minipump treatment: left ventricular pressure by Mikro-tip catheter; type: in vivo; conditions: 6 weeks, CV-8972 10 mg/kg/day, TAC control −5697±417
TAC mice [4] = experiment: TAC mice, 6-week minipump treatment: heart weight and heart weight/body weight; type: in vivo; conditions: in words, 6 weeks, NA 2.4 mg/kg/day
[5] = system: isolated hearts after ischemia-reperfusion; experiment: Ischemia-reperfusion (IR), isolated hearts (Langendorff): cardiac function (left ventricular pressure); parameters: species or system mice; conditions: in words; TMZ 20 μM; TNF 2 μM each; TNS 20 μM each
Description: FIG. 38 is a schematic of the ischemia-reperfusion (IR) method used to analyze the effects of selected compositions on coronary flow, cardiac function, and infarct size. […] At 20 minutes, ischemia was induced, and coronary flow was analyzed. At 50 minutes, reperfusion was initiated to restore blood flow. At 170 minutes, coronary flow and cardiac function was analyzed, and then the hearts were preserved, sectioned, and infarct size was measured by triphenyltetrazolium chloride (TTC) staining.

[6] = to the end of the study (6 weeks)

`COc1ccc(CN2CCN(CCO)CC2)c(OC)c1OC` [CV-8814, 2-(4-(2,3,4-trimethoxybenzyl)piperazin-1-yl)ethan-1-ol] was tested, and the EF (TAC mice [1]; 3-weeks after TAC) was “significantly increased”, the EF (TAC mice [1]; [6]) was “protective effect was sustained” and the “cardiac fibrosis (fibrotic area to whole heart tissue area)” value (TAC mice [2]) was 6.6±0.6%.

With `COc1ccc(CN2CCN(CCOC(=O)c3cccnc3)CC2)c(OC)c1OC` [CV-8972, 2-(4-(2,3,4-trimethoxybenzyl)piperazin-1-yl)ethyl nicotinate] the “−dp/dtm” value (TAC mice [3]) was −4126±339 mm Hg/sec, the EF (TAC mice [1]; 3-weeks after TAC) was “significantly increased” and the EF (TAC mice [1]; [6]) was “protective effect was sustained”.

`O=C(O)c1cccnc1` [NA, nicotinic acid, reference compound] was tested, and the “effect on cardiac remodeling” value (TAC mice [4]) was “no significant effect on cardiac remodeling”, the IVSd (TAC mice [1]; TAC mice, NA 2.4 mg/kg/day) was “decreased IVSd” and the LV mass (TAC mice [1]; TAC mice, NA 2.4 mg/kg/day) was “no effect on LV mass”.

For `COc1ccc(CN2CCNCC2)c(OC)c1OC` [TMZ, trimetazidine], the “cardiac function (LVDP) after IR” value [5] was “prevented a decline in cardiac function”.

Reference: patent US12569480B2, “Methods of treating fibrosis using compounds that promote glucose oxidation” (IMBRIA PHARMACEUTICALS, INC., priority 2019, dated 2026)
